What was measured:
[1] = biological target: T1, VGLUT1 (Rattus norvegicus, UniProt Q62634); assay: whole endosome patch clamp, block of Cl- and glutamate currents; format: biochemical
T1 construct: gene Slc17a7; full-length rat VGLUT1 fused to EGFP (pEGFP-N1); co-expressed with Rab5 Q79L-mCherry in HEK293T; whole endosome recording of isolated enlarged endosomes
T1 sequence (Q62634 1-560): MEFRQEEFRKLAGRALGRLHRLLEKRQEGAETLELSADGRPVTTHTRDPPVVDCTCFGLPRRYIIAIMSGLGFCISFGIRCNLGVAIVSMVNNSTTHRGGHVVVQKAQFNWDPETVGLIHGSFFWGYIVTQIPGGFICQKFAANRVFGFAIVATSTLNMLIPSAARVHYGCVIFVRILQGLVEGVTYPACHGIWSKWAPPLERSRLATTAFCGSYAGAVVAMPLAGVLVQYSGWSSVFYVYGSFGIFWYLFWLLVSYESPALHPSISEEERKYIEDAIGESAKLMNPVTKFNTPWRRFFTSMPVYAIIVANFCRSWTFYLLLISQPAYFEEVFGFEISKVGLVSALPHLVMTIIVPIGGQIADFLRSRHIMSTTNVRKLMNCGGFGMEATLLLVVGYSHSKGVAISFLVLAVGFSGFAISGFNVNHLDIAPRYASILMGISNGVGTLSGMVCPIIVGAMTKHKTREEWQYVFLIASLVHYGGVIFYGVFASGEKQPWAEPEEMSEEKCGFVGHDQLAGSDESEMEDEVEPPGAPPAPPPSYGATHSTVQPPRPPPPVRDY

[2] = biological target: T1, VGLUT1; assay: whole endosome patch clamp, outward glutamate currents; format: biochemical
Experimental: whole endosome patch clamp, outward glutamate currents on VGLUT1 | glutamate currents saturate with EC50376 µM

Row | IC50 [1] [µM] | EC50 [2] [µM] | Compound
1 | ~0.2 |  | Cc1cc(-c2ccc(/N=N/c3ccc4c(S(=O)(=O)O)cc(S(=O)(=O)O)c(N)c4c3O)c(C)c2)ccc1/N=N/c1ccc2c(S(=O)(=O)O)cc(S(=O)(=O)O)c(N)c2c1O [Evans Blue]
2 |  | 376 | N[C@@H](CCC(=O)O)C(=O)O [glutamate]
